# In article PMC7567501 (Journal of Enzyme Inhibition and Medicinal Chemistry, 2019):
# What was measured:
# [1] = Cu(II) complexation, UV-vis spectrophotometric titration; type: physicochemical; conditions: 25% w/w DMSO/water
# Procedure: It has been largely accepted that chelators interfere both in metal-induced Aβ aggregation/neurotoxicity and on metal homeostasis of AD brains. Among the hybrids with BF hydroxyl substituent, compound 21 was chosen as a representative model to analyse the concomitant chelating capacity towards the redox-active (Fe(III), Cu(II)) and Aβ-binding (Cu(II)) metal ions. Due to solubility reasons, these studies were performed in a mixed 25% (w/w) DMSO/water medium, In fact, DMSO was chosen because it is a widely used and well tolerated solvent in biological and cellular studies, the amounts of ligand (<7 µM) and DMSO (<1%) employed in culture media being quite low with concomitant no alterations observed in cells.
# The chelating ability of compound 21 towards the two metal ions under study (Fe(III) and Cu(II)) was evaluated on the basis of the global formation constants of the complexes, obtained by treatment of the UV-vis spectrophotometric data (see Table 1).
# For the metal complexation studies, the aqueous iron (FeCl3, 0.0177 M) and copper (CuCl2, 0.015 M) stock solutions were prepared from 1000 ppm standards (Titrisol) and their metal content was evaluated by atomic absorption. To prevent hydrolysis, the iron stock solution was prepared in excess of acid chloride and its exact concentration in HCl determined by the usual standard-addition method using 0.1 M HCl (Titrisol). The 0.1 M HCl solution, used in spectrophotometric titrations, was prepared from a Titrisol ampoule while the titrant was from carbonate free commercial concentrate (Titrisol, KOH 0.1 M ampoules). The KOH solution was standardised by titration with a solution of potassium hydrogen phthalate and was discarded whenever the percentage of carbonate, determined by Gran’s method, was greater than 0.5% of the total amount of base.
# The electronic spectra and the AChE inhibition assays were performed in a 1-cm path length quartz cell with a Perkin Elmer Lambda 35 spectrophotometer equipped with a temperature programmer PTP1 + 1 Peltier System (T = 25.0 ± 0.1 °C). The enzyme AChE 500 U, extracted from Electrophorus electricus (electric eel), was purchased from Sigma-Aldrich.
# Aβ1-42 = molecular target: T1, Aβ1-42 (Homo sapiens, UniProt P05067); assay: TEM imaging of Aβ aggregation inhibition; conditions: compound 50 μM, 37 °C, 24 h, pH 6.6
# T1 construct: Amyloid β-peptide (1–42), Aβ1-42, was purchased from GeneCust; purchased GeneCust
# T1 sequence (P05067 672-713 limits assumed): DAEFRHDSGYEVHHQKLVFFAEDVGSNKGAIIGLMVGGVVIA
# Procedure: Nevertheless, since quantitative analysis based on fluorescence of copper(II) containing solutions may result in somehow erroneous conclusions due to some potential emission quenching by this paramagnetic ion, a fluorescence-independent study by transmission electron microscopy (TEM) was also performed for compound 21. […] Overall, TEM confirms the role of the ligand in the inhibition of Aβ aggregation.
# Figure 6. TEM images of Aβ aggregation inhibition performed with samples incubated (37 °C) for 24 h. Experimental conditions: [Aβ1–42] = [CuCl2] = 25 μM; [21] = 50 μM; pH = 6.6.
# For the study of the β-amyloid (Aβ) aggregation, the ThT fluorescence assay was performed using a Varian Cary Eclipse fluorimeter at the following wavelengths: excitation (446 nm) and emission (485 nm). Amyloid β-peptide (1–42), Aβ1-42, was purchased from GeneCust as a lyophilised powder stored at −20 °C. TEM assays were performed with a Hitachi H8100 transmission electron microscope with a LaB6 filament (200 kV, 10000–20000 × magnification) at MicroLab/IST.
# The Transmission Electron Microscopy (TEM) is a high resolution technique used to study biological or inorganic samples at 2–3 nm level, through black and white high-quality images. The compound 21 was selected among those with better anti-Aβ aggregation assay. […]
compound,measurement,setting,value
"O=C(NCCCNc1c2c(nc3ccccc13)CCCC2)c1cc2cccc(O)c2o1 [Compound 21, 7-Hydroxy-N-(3-((1,2,3,4-tetrahydroacridin-9-yl)amino)propyl)benzofuran-2-carboxamide]","log βCumHhLl, species (1–11)","[1]; T = 25.0 °C, I = 0.1 M KCl",2.25(3)
same,"log βCumHhLl, species (101)","[1]; T = 25.0 °C, I = 0.1 M KCl",10.87(6)
same,"log βCumHhLl, species (102)","[1]; T = 25.0 °C, I = 0.1 M KCl",20.68(8)
same,"log βCumHhLl, species (111)","[1]; T = 25.0 °C, I = 0.1 M KCl",19.02(2)
same,pM (pCu) = −log[M],"[1]; pH 7.4, CL/CM = 10, CM = 10^−6 M",11.9
same,"TEM morphology of Aβ42 aggregates, self-induced","Aβ1-42; [Aβ1–42] = 25 μM, no copper",the aggregates became sparser and more elongated
same,TEM morphology of Aβ42 aggregates in presence of copper,Aβ1-42; [Aβ1–42] = [CuCl2] = 25 μM,formation of homogenous low molecular aggregates
